Legend:
[1] = Liquid, Vibrating tube method
[2] = mn = molality of the nth substance listed, in mol/kg; conditions: Liquid, m2 = 0

O [water]
mass density [kg/m3], [1]
Conditions | 101 kPa | 10000 kPa | 25000 kPa | 50000 kPa | 75000 kPa | 100000 kPa
278.15 K | 999.96 | 1004.78 | 1011.88 | 1023.2 | 1033.92 | 1044.08
288.15 K | – | 1003.67 | 1010.42 | 1021.21 | 1031.47 | 1041.23
298.15 K | – | 1001.47 | 1007.99 | 1018.44 | 1028.38 | 1037.86
308.15 K | – | 998.36 | 1004.75 | 1014.97 | 1024.71 | 1034
323.15 K | 988.03 | 992.31 | 998.61 | 1008.68 | 1018.27 | 1027.42

O [water] + C[N+](C)(C)[O-]
mass density [kg/m3], [2]
Conditions | 278.15 K | 288.15 K | 298.15 K | 308.15 K | 323.15 K
101 kPa, Vibrating tube method | 999.96 | – | – | – | 988.03
10000 kPa, Constant-volume piezometry | 1004.78 | 1003.67 | 1001.47 | 998.36 | 992.31
25000 kPa, Constant-volume piezometry | 1011.88 | 1010.42 | 1007.99 | 1004.75 | 998.61
50000 kPa, Constant-volume piezometry | 1023.2 | 1021.21 | 1018.44 | 1014.97 | 1008.68
75000 kPa, Constant-volume piezometry | 1033.92 | 1031.47 | 1028.38 | 1024.71 | 1018.27
100000 kPa, Constant-volume piezometry | 1044.08 | 1041.23 | 1037.86 | 1034 | 1027.42

Source: the NIST ThermoML archive (doi:10.1021/je500977g)
